{
  "source": "paper PMC10584003",
  "about": "(The Journal of Clinical Endocrinology and Metabolism, 2023)",
  "key": {"[1]": {"tested_on": "GLP-1R variants E34*, H99Qfs*83, S155F, F169Sfs*13, and T353M", "test": "Homologous competition binding, 5 LoS variants without binding", "set-up": "species or system human", "conditions": "COS-7 cells, 125I-GLP-1(7-36)NH2, LoS variants E34*, F169Sfs*13, T353M"}, "[2]": {"tested_on": "GLP-1R, alanine at position 353", "conditions": "alanine mutation at position 353; ref [46]; cited from earlier work"}, "[3]": {"tested_on": "26 WT-like GLP-1R variants", "test": "cAMP measurement", "type": "cell-based, human", "conditions": "COS-7 cells"}, "GLP-1R F321S and F66L": {"tested_on": "GLP-1R F321S and F66L", "test": "cAMP signaling, variants F66L and F321S", "type": "cell-based, human", "conditions": "COS-7 cells, predicted pLoF"}, "[4]": {"tested_on": "GLP-1R variants S79L, R421W, and A449V", "test": "β-arrestin 2 recruitment", "type": "cell-based, human", "conditions": "HEK293 cells, BRET with GRK6, LoS variants S79L"}, "[5]": {"tested_on": "GLP-1R, alanine at position 87", "conditions": "ref [44]; cited from earlier work"}, "[6]": {"tested_on": "GLP-1R, alanine at position 155", "conditions": "ref [46]; cited from earlier work"}, "[7]": {"tested_on": "GLP-1R variants S79L, W87R, R310W, R421W, and A449V", "test": "Homologous competition binding, 5 LoS variants with maintained binding", "set-up": "species or system human", "conditions": "COS-7 cells"}, "[8]": {"tested_on": "GLP-1R, alanine at position 87", "conditions": "ref [44]; cited from earlier work", "remark": "listed apart in the source"}, "GLP-1R A316T [9]": {"tested_on": "GLP-1R A316T", "conditions": "A316T variant; agonist not given; ref [49]; cited from earlier work"}, "[10]": {"tested_on": "26 WT-like GLP-1R variants", "test": "β-arrestin 2 recruitment", "type": "cell-based, human", "conditions": "HEK293 cells, BRET with GRK6, 26 WT-like variants"}, "GLP-1R R310W": {"tested_on": "GLP-1R R310W", "conditions": "top of transmembrane helix 5, agonist not given, ref [45]; cited from earlier work"}, "GLP-1R A316T [11]": {"tested_on": "GLP-1R A316T", "conditions": "A316T variant; agonist not given; ref [49]; cited from earlier work", "remark": "listed apart in the source"}, "[12]": {"tested_on": "GLP-1R P7L, R131Q, G168S, and A316T", "test": "GLP-1R signaling, variants P7L, R131Q, G168S, A316T", "type": "cell-based, human", "conditions": "present study, COS-7 and HEK-293 cells"}, "[13]": {"tested_on": "GLP-1R variants E34*, W87R, H99Qfs*83, S155F, F169Sfs*13, R310W, and T353M", "test": "β-arrestin 2 recruitment", "type": "cell-based, human", "conditions": "HEK293 cells, BRET with GRK6, LoS variants E34*"}, "GLP-1R R421C": {"tested_on": "GLP-1R R421C", "conditions": "naturally occurring variant R421C; agonist not given; ref [42]; cited from earlier work"}, "[14]": {"tested_on": "GLP-1R, alanine at position 155", "conditions": "ref [46]; cited from earlier work", "remark": "listed apart in the source"}},
  "note": "“Also recorded” adds a separate entry of the source.",
  "data": [
    {"substance": "glucagon-like peptide 1 [GLP-1]", "values": [
      {"measurement": "receptor binding, result in words", "setting": "[1]", "value": "complete loss of binding; also recorded: no GLP-1 binding"},
      {"measurement": "cAMP production, alanine at position 353, result in words", "setting": "[2]", "value": "altered cAMP production"},
      {"measurement": "change in cAMP potency vs WT (WT-like criterion)", "setting": "[3]; 26 WT-like variants, EC50 change vs WT", "value": "< 5", "unit": "fold"},
      {"measurement": "cAMP Emax (WT-like criterion)", "setting": "[3]; 26 WT-like variants, Emax of at least 50% of the WT Emax", "value": "at least 50 % of the WT Emax"},
      {"measurement": "cAMP production, result in words", "setting": "[3]; 26 variants, compared to WT", "value": "cAMP production similar to WT GLP-1R"},
      {"measurement": "cAMP signaling, result in words", "setting": "GLP-1R F321S and F66L", "value": "normal cAMP signaling"},
      {"measurement": "β-arrestin 2 recruitment, result in words", "setting": "[4]", "value": "maintained β-arrestin 2 recruitment"},
      {"measurement": "cAMP signaling, alanine at position 87, result in words", "setting": "[5]", "value": "no altered GLP-1 binding or cAMP signaling"},
      {"measurement": "cAMP production, alanine at position 155, result in words", "setting": "[6]", "value": "affected cAMP production"},
      {"measurement": "GLP-1 binding, result in words", "setting": "[7]", "value": "maintained GLP-1 binding"},
      {"measurement": "GLP-1 binding, alanine at position 87, result in words", "setting": "[8]", "value": "no altered GLP-1 binding"},
      {"measurement": "β-arrestin recruitment, A316T", "setting": "GLP-1R A316T [9]", "value": "18 % of WT"},
      {"measurement": "β-arrestin 2 recruitment, result in words", "setting": "[10]", "value": "WT-like β-arrestin 2 recruitment"},
      {"measurement": "β-arrestin 2 recruitment average Emax", "setting": "[10]; average, ± 6.6% (SEM)", "value": "90.2 % of WT"},
      {"measurement": "efficacy, R310W, result in words", "setting": "GLP-1R R310W", "value": "reduce efficacy"},
      {"measurement": "signaling and binding, A316T, result in words", "setting": "GLP-1R A316T [11]", "value": "WT-like signaling and binding properties"},
      {"measurement": "GLP-1R signaling, result in words", "setting": "[12]", "value": "WT-like GLP-1R signaling"},
      {"measurement": "β-arrestin 2 recruitment, result in words", "setting": "[13]", "value": "completely lost β-arrestin 2 recruitment"},
      {"measurement": "cAMP signaling, R421C, result in words", "setting": "GLP-1R R421C", "value": "no effect on cAMP signaling"},
      {"measurement": "GLP-1 affinity, alanine at position 155, result in words", "setting": "[14]", "value": "affected cAMP production and GLP-1 affinity"}
    ]}
  ]
}
